pEC50: −log10 of the molar value.
Each compound was assayed against T1, human TREM2 (Homo sapiens, UniProt Q9NZC2) (assay: TREM2 agonist potency by cellular phosphorylation of Syk (AlphaLisa) in HEK293T-hTREM2 cells). Settings: HEK293 cells expressing human TREM2 and DAP12, Table D.
T1 construct: expressed in transfected cells; host or cells: HEK293T
Assay type: cell-based
In short: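 Agonist EC50 from a variable-slope four-parameter fit of % activation, based on AlphaLisa phospho-Syk levels in lysates. Cells: HEK293T-hTREM2 (with DAP12), treated 45 min at room temperature with compound in assay buffer.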

T1 sequence (Q9NZC2 19-230): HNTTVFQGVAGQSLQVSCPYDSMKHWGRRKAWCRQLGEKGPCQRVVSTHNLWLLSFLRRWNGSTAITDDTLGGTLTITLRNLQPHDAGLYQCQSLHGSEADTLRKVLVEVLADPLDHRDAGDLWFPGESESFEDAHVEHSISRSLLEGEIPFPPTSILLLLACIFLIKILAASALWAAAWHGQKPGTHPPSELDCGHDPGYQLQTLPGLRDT
T1 sequence (O43914 22-113 partner): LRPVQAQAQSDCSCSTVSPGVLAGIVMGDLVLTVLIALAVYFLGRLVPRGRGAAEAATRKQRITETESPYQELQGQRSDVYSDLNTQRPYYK

`Cc1nc2nc(C3CCOC(c4nc(C5CC5)n[nH]4)C3)nc(-c3ccc(F)cc3F)c2nc1C` (stereo not drawn) [Example 169] and `COc1cccc([C@@H]2C[C@H](c3nc(-c4ccc(F)cc4F)c4nc(C)c(C)nc4n3)CCO2)n1` [Example 164, 4-(2,4-difluorophenyl)-2-((2S,4R)-2-(6-methoxypyridin-2-yl)tetrahydro-2H-pyran-4-yl)-6,7-dimethylpteridine] fall in the same range of pEC50: 5.52 to 6.30 for the first, 5.52 to 6.30 for the second.

`Cc1nc2cc([C@H]3CCO[C@@H](c4cnn(C5CC5)c4)C3)nc(-c3ccc(C(F)(F)F)cc3F)c2nc1C` [Example 211, 7-((2R,4S)-2-(1-cyclopropyl-1H-pyrazol-4-yl)tetrahydro-2H-pyran-4-yl)-5-(2-fluoro-4-(trifluoromethyl)phenyl)-2,3-dimethylpyrido[3,4-b]pyrazine] and `Cc1nc2nc([C@H]3CCO[C@@H](c4cnn(C5CC5)c4)C3)cc(-c3ccc(Cl)cc3F)c2nc1C` [Example 224, 8-(4-chloro-2-fluorophenyl)-6-((2R,4S)-2-(1-cyclopropyl-1H-pyrazol-4-yl)tetrahydro-2H-pyran-4-yl)-2,3-dimethylpyrido[2,3-b]pyrazine] cannot be ordered by pEC50: > 7.30 for the first, > 7.30 for the second.

Compared with `[2H]C([2H])([2H])c1ccc(-c2nc([C@@H]3CCO[C@H](c4cnn(C([2H])([2H])[2H])c4)C3)nc3nc(C([2H])([2H])[2H])c(C([2H])([2H])[2H])nc23)cc1` [Example 174, 6,7-bis(methyl-d3)-2-((2S,4R)-2-(1-(methyl-d3)-1H-pyrazol-4-yl)tetrahydro-2H-pyran-4-yl)-4-(4-(methyl-d3)phenyl)pteridine], `[2H]C([2H])([2H])c1nc2nc([C@H]3CCO[C@@H](c4ccnc(C)c4)C3)nc(-c3ccc(Cl)c(F)c3F)c2nc1C([2H])([2H])[2H]` [Example 137, 4-(4-chloro-2,3-difluorophenyl)-6,7-bis(methyl-d3)-2-((2R,4S)-2-(2-methylpyridin-4-yl)tetrahydro-2H-pyran-4-yl)pteridine] is higher in pEC50: 4.00 to 5.52 for the first, > 7.30 for the second.

`Cc1nc2nc(N3CCO[C@@H](c4cc[nH]c(=O)c4)C3)nc(C34CC(C(F)(F)F)(C3)C4)c2nc1C` [Example 198, (S)-4-(4-(6,7-dimethyl-4-(3-(trifluoromethyl)bicyclo[1.1.1]pentan-1-yl)pteridin-2-yl)morpholin-2-yl)pyridin-2(1H)-one] and `Cc1cnc2c(C34CC(C(F)(F)F)(C3)C4)nc(N3C[C@@H](C)O[C@@H](c4cnn(C5CC5)c4)C3)nc2n1` [Example 126, (2S,6R)-2-(1-cyclopropyl-1H-pyrazol-4-yl)-6-methyl-4-(7-methyl-4-(3-(trifluoromethyl)bicyclo[1.1.1]pentan-1-yl)pteridin-2-yl)morpholine] cannot be ordered by pEC50: > 7.30 for the first, > 7.30 for the second.

Compared with `Cc1cnc2c(-c3ccc(Cl)cc3F)nc([C@H]3C[C@@H](C)O[C@@H](c4cnn(C5CC5)c4)C3)nc2n1` [Example 129, 4-(4-chloro-2-fluorophenyl)-2-((2R,4S,6R)-2-(1-cyclopropyl-1H-pyrazol-4-yl)-6-methyltetrahydro-2H-pyran-4-yl)-7-methylpteridine], `Cc1nc2nc(-c3ccc(Cl)cc3F)cc([C@H]3CCO[C@@H](c4cnn(C5CC5)c4)C3)c2nc1C` [Example 237, 6-(4-chloro-2-fluorophenyl)-8-((2R,4S)-2-(1-cyclopropyl-1H-pyrazol-4-yl)tetrahydro-2H-pyran-4-yl)-2,3-dimethylpyrido[2,3-b]pyrazine] is higher in pEC50: 6.30 to 7.30 for the first, > 7.30 for the second.

`Cc1ccc2c(C34CC(C(F)(F)F)(C3)C4)nc([C@H]3CCO[C@@H](c4cnn(C5CC5)c4)C3)nc2n1` [Example 221, 2-((2R,4S)-2-(1-cyclopropyl-1H-pyrazol-4-yl)tetrahydro-2H-pyran-4-yl)-7-methyl-4-(3-(trifluoromethyl)bicyclo[1.1.1]pentan-1-yl)pyrido[2,3-d]pyrimidine] and `[2H]C1([2H])C[C@@H](c2nc(-c3ccc(F)cc3F)c3nc(C)c(C)nc3n2)C[C@@H](c2cnn(C3CC3)c2)O1` (single isomer, unassigned) [Example 170] cannot be ordered by pEC50: > 7.30 for the first, > 7.30 for the second.

With `Cc1ccc(-c2nc(N3C[C@@H](C)O[C@@H](c4cnn(C5CC5)c4)C3)nc3nc(C)c(C)nc23)s1` [Example 244, (2S,6R)-2-(1-cyclopropyl-1H-pyrazol-4-yl)-4-(6,7-dimethyl-4-(5-methylthiophen-2-yl)pteridin-2-yl)-6-methylmorpholine] the pEC50 was 6.30 to 7.30.

Same assay, conditions: HEK293 cells expressing human TREM2 and DAP12, Table D-2

`Cc1nc2nc(N3C[C@@H](C)O[C@@H](c4cnn(C5CC5)c4)C3)cc(-c3ccc(Cl)cc3F)c2nc1C` [Example I-1076, (2S,6R)-4-[8-(4-chloro-2-fluoro-phenyl)-2,3-dimethyl-pyrido[2,3-b]pyrazin-6-yl]-2-(1-cyclopropylpyrazol-4-yl)-6-methyl-morpholine] and `Cc1nc2nc(N3C[C@@H](C)O[C@@H](c4cnn(C5CC5)c4F)C3)nc(-c3ccc(F)cc3F)c2nc1C` [Example I-1401, (2S,6R)-2-(1-cyclopropyl-5-fluoro-pyrazol-4-yl)-4-[4-(2,4-difluorophenyl)-6,7-dimethyl-pteridin-2-yl]-6-methyl-morpholine] cannot be ordered by pEC50: > 7.30 for the first, > 7.30 for the second.

`Cc1nc2nc(N3C[C@@H](C4CC4)O[C@@H](c4cnn(C(F)F)c4)C3)nc(-c3ccc(F)cc3F)c2nc1C` (stereo in doubt) [Example I-1702, (2R,6S)-2-cyclopropyl-6-[1-(difluoromethyl)pyrazol-4-yl]-4-[4-(2,4-difluorophenyl)-6,7-dimethyl-pteridin-2-yl]morpholine] and `COCCn1cc([C@H]2C[C@@H](c3nc(-c4ccc(F)cc4F)c4nc(C)c(C)nc4n3)CCO2)cn1` (stereo in doubt) [Example I-1658, 4-(2,4-difluorophenyl)-2-(2-(1-(2-methoxyethyl)-1H-pyrazol-4-yl)tetrahydro-2H-pyran-4-yl)-6,7-dimethylpteridine] fall in the same range of pEC50: 6.30 to 7.30 for the first, 6.30 to 7.30 for the second.

First: Cc1nc2cc([C@H]3CCO[C@@H](c4cnn(C5CC5)c4)C3)nc(-c3ccc(F)cc3F)c2nc1COC(F)F [Example I-1490, 7-((2R,4S)-2-(1-cyclopropyl-1H-pyrazol-4-yl)tetrahydro-2H-pyran-4-yl)-3-((difluoromethoxy)methyl)-5-(2,4-difluorophenyl)-2-methylpyrido[3,4-b]pyrazine]
Second: Cc1nc2nc([C@H]3CCO[C@@H](c4cnn(C5CC5)c4)C3)nc(-c3ccc(Cl)cc3F)c2nc1C(F)F [Example I-1099, 4-(4-chloro-2-fluoro-phenyl)-2-[(2R,4S)-2-(1-cyclopropylpyrazol-4-yl)tetrahydropyran-4-yl]-6-(difluoromethyl)-7-methyl-pteridine]
The pEC50 of the first is lower: 4.00 to 5.52 for the first, > 7.30 for the second. The second is the more potent here.

First: Cc1nc2nc(C3CCO[C@@H](c4cnn(C5CC5)c4)C3)nc(C3CC4(C3)CC(F)(F)C4)c2nc1C (stereo partly drawn) [Example I-1582, 2-[(2R)-2-(1-cyclopropylpyrazol-4-yl)tetrahydropyran-4-yl]-4-(2,2-difluorospiro[3.3]heptan-6-yl)-6,7-dimethyl-pteridine]
Second: Cc1cc2c(-c3ccc(F)cc3F)nc(N3C[C@@H](C)O[C@@H](c4cn(C)cn4)C3)nc2nc1C [Example I-1260, (2R,6R)-4-[4-(2,4-difluorophenyl)-6,7-dimethyl-pyrido[2,3-d]pyrimidin-2-yl]-2-methyl-6-(1-methylimidazol-4-yl)morpholine; formic acid]
The pEC50 of the first is higher: > 7.30 for the first, 5.52 to 6.30 for the second.

Source: patent US20240309003A1, “HETEROCYCLIC COMPOUNDS AS TRIGGERING RECEPTOR EXPRESSED ON MYELOID CELLS 2 AGONISTS AND METHODS OF USE” (Vigil Neuroscience, Inc., priority 2021, published 2024)
